The source of these data is paper PMC3203118, “Elucidation of the ATP7B N-Domain Mg^2+-ATP Coordination Site and Its Allosteric Regulation” (PLoS ONE, 2011).

Numbering of substitutions follows the chain as printed. Some results are limits rather than exact numbers.

Assay in all cases: surface plasmon resonance (BIAcore), protein immobilised on CM4 chip
For orientation: SPR reads the build-up and loss of mass on a sensor chip optically.

Assay [1] addresses T1, ATP7B N-domain (Nucleotide binding domain) (Homo sapiens, UniProt P35670).
T1 construct: covalently immobilised on CM4 sensor chip
T1 sequence (P35670 1036-1196): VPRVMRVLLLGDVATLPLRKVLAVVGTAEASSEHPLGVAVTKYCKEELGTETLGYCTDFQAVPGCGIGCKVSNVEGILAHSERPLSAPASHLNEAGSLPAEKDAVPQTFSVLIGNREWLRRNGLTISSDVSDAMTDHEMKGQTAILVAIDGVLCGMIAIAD
Conditions: read-out: Kd (μM) / ATP. From the text: (§1) surface plasmon resonance (BIAcore), protein immobilised on CM4 chip on ATP7B N-domain (Nucleotide binding domain)

Assay [2] has as its target T2, ATP7B N-domain (Nucleotide binding domain) (Homo sapiens, UniProt P35670, D1167A).
T2 construct: covalently immobilised on CM4 sensor chip
T2 sequence (P35670 1036-1196 D1167A): T1 sequence (P35670 1036-1196) with D132A
The following applies: read-out: Kd (μM) / ATP.
Excerpt: as §1

For assay [3], the target named is T3, ATP7B N-domain (Nucleotide binding domain) (Homo sapiens, UniProt P35670, D1167A/D1171A/E1152A).
T3 construct: covalently immobilised on CM4 sensor chip
T3 sequence (P35670 1036-1196 E1152A/D1167A/D1171A): T1 sequence (P35670 1036-1196) with E117A, D132A, D136A
Excerpt: as §1

Assay [4] concerns the target T4, ATP7B N-domain (Nucleotide binding domain) (Homo sapiens, UniProt P35670, D1171A).
T4 construct: covalently immobilised on CM4 sensor chip
T4 sequence (P35670 1036-1196 D1171A): T1 sequence (P35670 1036-1196) with D136A
Conditions: read-out: Kd (μM) / ATP.
Excerpt: as §1

The target of assay [5] is T5, ATP7B N-domain (Nucleotide binding domain) (Homo sapiens, UniProt P35670, DEL1121-1137).
T5 construct: covalently immobilised on CM4 sensor chip
T5 sequence (P35670 with tags, fused parts or gaps DEL1121-1137): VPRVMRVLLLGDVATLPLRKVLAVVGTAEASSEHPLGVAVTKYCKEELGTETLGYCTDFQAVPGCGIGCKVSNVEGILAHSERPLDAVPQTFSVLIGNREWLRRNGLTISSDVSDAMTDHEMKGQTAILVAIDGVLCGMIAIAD
Excerpt: as §1

Assay [6] deals with T6, ATP7B N-domain (Nucleotide binding domain) (Homo sapiens, UniProt P35670, E1152A).
T6 construct: covalently immobilised on CM4 sensor chip
T6 sequence (P35670 1036-1196 E1152A): T1 sequence (P35670 1036-1196) with E117A
The following applies: read-out: Kd (μM) / ATP.
Excerpt: as §1

Assay [7] addresses T7, ATP7B N-domain (Nucleotide binding domain) (Homo sapiens, UniProt P35670, H1069Q).
T7 construct: covalently immobilised on CM4 sensor chip
T7 sequence (P35670 1036-1196 H1069Q): T1 sequence (P35670 1036-1196) with H34Q
Conditions: read-out: Kd (μM) / ATP.
Excerpt: as §1

The target in assay [8] is T8, ATP7B N-domain (Nucleotide binding domain) (Homo sapiens, UniProt P35670, N1150A).
T8 construct: covalently immobilised on CM4 sensor chip
T8 sequence (P35670 1036-1196 N1150A): T1 sequence (P35670 1036-1196) with N115A
Conditions: read-out: Kd (μM) / ATP.
Excerpt: as §1

With `Nc1ncnc2c1ncn2[C@@H]1O[C@H](COP(=O)(O)OP(=O)(O)OP(=O)(O)O)[C@@H](O)[C@H]1O` [ATP], the Kd in assay [1] was 74.2 ± 2.52 µM; in assay [2] it was 96.9 ± 3.91 µM; in assay [3], more than 1000 µM; in assay [4] it was 81.1 ± 3.16 µM; in assay [5], more than 1000 µM; in assay [6], 174 ± 3.82 µM. Moreover, the results for the Kd in assay [7] and in assay [8] were 76.5 ± 1.72 µM and 82.7 ± 4.16 µM, respectively.
